Source: the RepoRT retention time repository

Assay: HILIC, HILICON iHILIC-(P) Classic, HILIC, PEEK, 50 × 2.1 mm, 5 µm, 30 °C, 0.12 mL/min, estimated dead time 0.92 min; A: water + 20 mM ammonium carbonate + 10 mM ammonium hydroxide; B: acetonitrile; gradient (min/%B) 0/90 1/90 21/20 21.5/20 23.5/20 24.5/90 26/90 26.5/90
Conditions: stereoisomer not certain

| Structure (SMILES) | LC retention time |
| --- | --- |
| Nc1ncnc2c1ncn2C1OC(COP(=O)(O)OP(=O)(O)O)C(O)C1O (stereo not drawn) [ADP] | 12.3 min |
| Nc1ncnc2c1ncn2C1OC(COP(=O)(O)O)C(O)C1O (stereo not drawn) [AMP] | 8.72 min |
| Nc1ncnc2c1ncn2C1OC(COP(=O)(O)OP(=O)(O)OP(=O)(O)O)C(O)C1O (stereo not drawn) [ATP] | 13.5 min |
| CC(=O)SCCNC(=O)CCNC(=O)C(O)C(C)(C)COP(=O)(O)OP(=O)(O)OCC1OC(n2cnc3c(N)ncnc32)C(O)C1OP(=O)(O)O (stereo not drawn) [Acetyl-CoA] | 8.53 min |
| Nc1ncnc2nc[nH]c12 [Adenine] | 3.45 min |
| Nc1ncnc2c1ncn2C1OC(CO)C(O)C1O (stereo not drawn) [Adenosine] | 3.59 min |
| O=C1OC(C(O)CO)C(O)=C1O (stereo not drawn) [Ascorbic Acid] | 9.17 min |
| NC(=O)CC(N)C(=O)O (stereo not drawn) [Asparagine] | 10.7 min |
| O=C(O)CCCCC1SCC2NC(=O)NC21 (stereo not drawn) [Biotin] | 3.27 min |
| Nc1ccn(C2OC(COP(=O)(O)OP(=O)(O)O)C(O)C2O)c(=O)n1 (stereo not drawn) [CDP] | 13.2 min |
| Nc1ccn(C2OC(COP(=O)(O)O)C(O)C2O)c(=O)n1 (stereo not drawn) [CMP] | 11.1 min |
| O=C(O)CC(O)(CC(=O)O)C(=O)O [Citric acid] | 16.6 min |
| NC(CSSCC(N)C(=O)O)C(=O)O (stereo not drawn) [Cystine] | 11.6 min |
| Nc1ccn(C2OC(CO)C(O)C2O)c(=O)n1 (stereo not drawn) [Cytidine] | 5.88 min |
| Nc1nc2ncc(CNc3ccc(C(=O)NC(CCC(=O)O)C(=O)O)cc3)nc2c(=O)[nH]1 (stereo not drawn) [Folic Acid] | 14.3 min |
| O=P(O)(O)OCC1OC(O)(COP(=O)(O)O)C(O)C1O (stereo not drawn) [Fructose-1,6-bisphosphate] | 16 min |
| Nc1nc2c(ncn2C2OC(COP(=O)(O)OP(=O)(O)O)C(O)C2O)c(=O)[nH]1 (stereo not drawn) [GDP] | 14.8 min |
| Nc1nc2c(ncn2C2OC(COP(=O)(O)O)C(O)C2O)c(=O)[nH]1 (stereo not drawn) [GMP] | 14.2 min |
| NC(CCC(=O)NC(CS)C(=O)NCC(=O)O)C(=O)O (stereo not drawn) [GSH] | 8.79 min |
| NC(CCC(=O)NC(CSSCC(NC(=O)CCC(N)C(=O)O)C(=O)NCC(=O)O)C(=O)NCC(=O)O)C(=O)O (stereo not drawn) [GSSG] | 15.4 min |

| Structure (SMILES) | LC retention time |
| --- | --- |
| Nc1nc2c(ncn2C2OC(COP(=O)(O)OP(=O)(O)OP(=O)(O)O)C(O)C2O)c(=O)[nH]1 (stereo not drawn) [GTP] | 17 min |
| NC(CCC(=O)O)C(=O)O (stereo not drawn) [Glutamic acid] | 9.84 min |
| NC(=O)CCC(N)C(=O)O (stereo not drawn) [Glutamine] | 8.38 min |
| O=P(O)(O)OCC(O)CO (stereo not drawn) [Glycerol-3-phosphate] | 10.9 min |
| Nc1nc2c(ncn2C2OC(CO)C(O)C2O)c(=O)[nH]1 (stereo not drawn) [Guanosine] | 6.51 min |
| O=C(O)CC(C(=O)O)C(O)C(=O)O (stereo not drawn) [Isocitric acid] | 16.1 min |
| CCC(C)C(N)C(=O)O (stereo not drawn) [Isoleucine] | 5.8 min |
| CC(O)C(=O)O (stereo not drawn) [Lactic Acid] | 3.24 min |
| CC(C)CC(N)C(=O)O (stereo not drawn) [Leucine] | 5.52 min |
| NCCCCC(N)C(=O)O (stereo not drawn) [Lysine] | 18.8 min |
| O=C(O)CC(O)C(=O)O (stereo not drawn) [Malic Acid] | 12.9 min |
| O=C(O)CC(=O)O [Malonic Acid] | 9.18 min |
| CSCCC(N)C(=O)O (stereo not drawn) [Methionine] | 5.98 min |
| CC(=O)NC(CC(=O)O)C(=O)O (stereo not drawn) [N-Acetylaspartic acid] | 9.45 min |
| NC(=O)C1=CN(C2OC(COP(=O)(O)OP(=O)(O)OCC3OC(n4cnc5c(N)ncnc54)C(O)C3O)C(O)C2O)C=CC1 (stereo not drawn) [NADH] | 9.31 min |
| NC(=O)C1=CN(C2OC(COP(=O)(O)OP(=O)(O)OCC3OC(n4cnc5c(N)ncnc54)C(OP(=O)(O)O)C3O)C(O)C2O)C=CC1 (stereo not drawn) [NADPH] | 16.9 min |
| NC(=O)c1ccc[n+](C2OC(COP(=O)(O)OP(=O)(O)OCC3OC(n4cnc5c(N)ncnc54)C(OP(=O)(O)O)C3O)C(O)C2O)c1 (stereo not drawn) [NADP] | 13.4 min |
| NC(=O)c1ccc[n+](C2OC(COP(=O)(O)OP(=O)(O)OCC3OC(n4cnc5c(N)ncnc54)C(O)C3O)C(O)C2O)c1 (stereo not drawn) [NAD] | 9.03 min |
| NC(=O)c1ccc[n+](C2OC(COP(=O)([O-])O)C(O)C2O)c1 (stereo not drawn) [NMN] | 9.92 min |
| O=C(O)c1cccnc1 [Nicotinic acid] | 2.38 min |

| Structure (SMILES) | LC retention time |
| --- | --- |
| NCCCC(N)C(=O)O (stereo not drawn) [Ornithine] | 18.1 min |
| C=C(OP(=O)(O)O)C(=O)O [PEP] | 13.7 min |
| NC(Cc1ccccc1)C(=O)O (stereo not drawn) [Phenylalanine] | 5.17 min |
| O=C(O)C(CO)OP(=O)(O)O (stereo not drawn) [Phosphoglyceric acid A] | 13.6 min |
| O=C(O)C1CCCN1 (stereo not drawn) [Proline] | 6.54 min |
| O=C(O)C1(O)CC(O)C(O)C(O)C1 (stereo not drawn) [Quinic Acid] | 6.61 min |
| NC(CO)C(=O)O (stereo not drawn) [Serine] | 8.67 min |
| O=C(O)CCC(=O)O [Succinic Acid] | 11.6 min |
| Cc1ncc(C[n+]2csc(CCO)c2C)c(N)n1 [Thiamine] | 12.8 min |
| CC(O)C(N)C(=O)O (stereo not drawn) [Threonine] | 8.21 min |
| O=C(CO)COP(=O)(O)O [Triose phosphate] | 10.9 min |
| NC(Cc1c[nH]c2ccccc12)C(=O)O (stereo not drawn) [Tryptophan] | 6.14 min |
| NC(Cc1ccc(O)cc1)C(=O)O (stereo not drawn) [Tyrosine] | 6.96 min |
| CC(=O)NC1C(OP(=O)(O)OP(=O)(O)OCC2OC(n3ccc(=O)[nH]c3=O)C(O)C2O)OC(CO)C(O)C1O (stereo not drawn) [UDP-GlcNAc] | 11.9 min |
| O=c1ccn(C2OC(COP(=O)(O)OP(=O)(O)O)C(O)C2O)c(=O)[nH]1 (stereo not drawn) [UDP] | 12.3 min |
| O=c1ccn(C2OC(COP(=O)(O)O)C(O)C2O)c(=O)[nH]1 (stereo not drawn) [UMP] | 9.35 min |
| O=c1ccn(C2OC(COP(=O)(O)OP(=O)(O)OP(=O)(O)O)C(O)C2O)c(=O)[nH]1 (stereo not drawn) [UTP] | 14.2 min |
| CC(C)C(N)C(=O)O (stereo not drawn) [Valine] | 6.3 min |
